Assay results reported in patent US11975073B2 (priority 2020, dated 2024).
Like-named read-outs stand apart in the source and are kept apart here.

Tests used:
[1] = male, Sprague-Dawley, rat, in vivo, po
[2] = cynomolgus monkey, in vivo, po; for AUCinf, free allopregnanolone / AUCinf, total allopregnanolone / Cmax, free allopregnanolone / Cmax, total allopregnanolone: male, 8.8 umol/kg
[3] = Sprague-Dawley, rat, in vivo, 8.8 umol/kg

For `CCCCCCCC/C=C\CCCCCCCC(=O)OCC(COC(=O)CCCCCCC/C=C\CCCCCCCC)OC(=O)CC(C)CC(=O)OCO[C@@H]1CC[C@@]2(C)[C@@H](CC[C@@H]3[C@@H]2CC[C@]2(C)[C@@H](C(C)=O)CC[C@@H]32)C1` (stereo partly drawn) [I-9], the Cmax ([1]; 2 mg/kg) was 126 nM, the “Mean Plasma AUC, 0-24 h” value ([1]; 2 mg/kg) was 192.1 nM·h and the Tmax ([1]; 2 mg/kg) was 1.3 h.
With `CCCCCCCC(=O)OCC(COC(=O)CCCCCCC)OC(=O)CC(C)CC(=O)OC(C)OC(=O)O[C@@H]1CC[C@@]2(C)[C@@H](CC[C@@H]3[C@@H]2CC[C@]2(C)[C@@H](C(C)=O)CC[C@@H]32)C1` (stereo partly drawn) [I-36, ALL-CMSI-C5bMe-2-TG-octanoate] the Cmax [1] was 242 nM, the Tmax [1] was 1.2 h and the “Prodrug detectability in plasma samples after dose administration” value [2] was “detectable in plasma samples after dose administration at all time-points”. For the same compound, the “AUCinf, free allopregnanolone” value [2] was 0.62 nM·h, the “AUCinf, total allopregnanolone” value [2] was 16.2 nM·h and the “Cmax, free allopregnanolone” value [2] was 100 nM. For the same compound, the “Cmax, total allopregnanolone” value [2] was 2720 nM, the “AUCinf, free allopregnanolone” value [3] was 1.12 nM·h and the “AUCinf, total allopregnanolone” value [3] was 3.86 nM·h. For the same compound, the “Cmax, free allopregnanolone” value [3] was 540 nM and the “Cmax, total allopregnanolone” value [3] was 800 nM.
Compound `CCCC(=O)OCC(COC(=O)CCC)OC(=O)CC(C)CC(=O)OC(C)OC(=O)O[C@@H]1CC[C@@]2(C)[C@@H](CC[C@@H]3[C@@H]2CC[C@]2(C)[C@@H](C(C)=O)CC[C@@H]32)C1` (stereo partly drawn) [I-37] has a Tmax [1] of 0.8 h.
With `CC(=O)OCC(COC(C)=O)OC(=O)CC(C)CC(=O)OC(C)OC(=O)O[C@@H]1CC[C@@]2(C)[C@@H](CC[C@@H]3[C@@H]2CC[C@]2(C)[C@@H](C(C)=O)CC[C@@H]32)C1` (stereo partly drawn) [I-38] the “Mean Plasma AUC, 0-24 h” value [1] was 450 nM·h and the Tmax [1] was 1 h.
`CCCCCCCC/C=C\CCCCCCCC(=O)OCC(COC(=O)CCCCCCC/C=C\CCCCCCCC)OC(=O)CCCCC(=O)OCO[C@@H]1CC[C@@]2(C)[C@@H](CC[C@@H]3[C@@H]2CC[C@]2(C)[C@@H](C(C)=O)CC[C@@H]32)C1` [I-40] gave a Tmax ([1]; 2 mg/kg) of 1.7 h.
Work on `CCCCCCCC/C=C\CCCCCCCC(=O)OCC(COC(=O)CCCCCCC/C=C\CCCCCCCC)OC(=O)CCCCCCC(=O)OCO[C@@H]1CC[C@@]2(C)[C@@H](CC[C@@H]3[C@@H]2CC[C@]2(C)[C@@H](C(C)=O)CC[C@@H]32)C1` [I-41] yielded a Tmax ([1]; 2 mg/kg) of 1.7 h.
For `CCCCCCCC/C=C\CCCCCCCC(=O)OCC(COC(=O)CCCCCCC/C=C\CCCCCCCC)OC(=O)CC(C)CCCCC(=O)OCO[C@@H]1CC[C@@]2(C)[C@@H](CC[C@@H]3[C@@H]2CC[C@]2(C)[C@@H](C(C)=O)CC[C@@H]32)C1` (stereo partly drawn) [I-42], the Tmax ([1]; 2 mg/kg) was 1.5 h.
For `CCCCCCCC(=O)OCC(COC(=O)CCCCCCC)OC(=O)CC(C)CC(=O)OCOC(=O)O[C@@H]1CC[C@@]2(C)[C@@H](CC[C@@H]3[C@@H]2CC[C@]2(C)[C@@H](C(C)=O)CC[C@@H]32)C1` (stereo partly drawn) [I-47, ALL-CASI-C5bMe-2-TG-octanoate], the “Prodrug detectability in plasma samples after dose administration” value [2] was “detectable in plasma samples after dose administration at all time-points”, the “AUCinf, free allopregnanolone” value [2] was 0.78 nM·h and the “AUCinf, total allopregnanolone” value [2] was 7.4 nM·h. The “Cmax, free allopregnanolone” value [2] was 120 nM, the “Cmax, total allopregnanolone” value [2] was 1170 nM and the “AUCinf, free allopregnanolone” value [3] was 1.15 nM·h. For the same compound, the “AUCinf, total allopregnanolone” value [3] was 3.03 nM·h, the “Cmax, free allopregnanolone” value [3] was 520 nM and the “Cmax, total allopregnanolone” value [3] was 900 nM.
`CCCCCCCC/C=C\CCCCCCCC(=O)OCC(COC(=O)CCCCCCC/C=C\CCCCCCCC)OC(=O)CCCCC(C)CC(=O)OCOC(=O)O[C@@H]1CC[C@@]2(C)[C@@H](CC[C@@H]3[C@@H]2CC[C@]2(C)[C@@H](C(C)=O)CC[C@@H]32)C1` (stereo partly drawn) [I-49, ALL-CASI-C8b′Me-2-TG-oleate] showed a Tmax ([1]; 2 mg/kg) of 1.7 h.
